Test results as given in ChEMBL document CHEMBL2057163, “Pyridofuran substituted pyrimidine derivatives as HCV replication (replicase) inhibitors” (Bioorg Med Chem Lett, 2012).

Experiments:
[1] = Cytotoxicity against human hepatoma cells assessed as decrease in GAPDH RNA level after 3 days by RT-PCR analysis; assay type: cell-based
[2] = tested on: Hepatitis C virus; experiment: Antiviral activity against Hepatitis C virus 1b con1 infected in human hepatoma cells assessed as decrease in replicon RNA level after 3 days by RT-PCR analysis; assay type: functional, organism-based, Hepacivirus hominis; conditions: Con1, 72 h
[3] = Cytotoxicity against human hepatoma cells after 3 days by MTS assay; assay type: cell-based
[4] = tested on: Liver; experiment: Drug uptake in rat liver assessed per gram of tissue at 10 mg/kg, po measured at 6 hrs; assay type: ADME, organism-based; design: dose 10 mg/kg, route oral; conditions: in vivo
[5] = AUC (0 to 6 hrs) in rat at 10 mg/kg, po; assay type: ADME, organism-based; design: time < 6 hr, dose 10 mg/kg, route oral; conditions: plasma

| Structure (SMILES) | EC50 [2] [nM] | liver concentration [4] [ng/g] | AUC(0-t) at 6 h [5] [µM·h] | CC50 at 72 h [1] [µM] | CC50 at 72 h [3] [µM] |
| --- | --- | --- | --- | --- | --- |
| CCc1cc2cc(-c3c(C)nc(NCCCC(F)(F)F)nc3N[C@@H]3C[C@H](CO)[C@@H](O)[C@H]3O)oc2cn1 | 20 |  |  | 17 | > 25 |
| CCc1cc2cc(-c3c(C)nc(NCC(C)C)nc3N[C@@H]3C[C@H](CO)[C@@H](O)[C@H]3O)oc2cn1 | 80 |  |  | 7 | 12 |
| CCOc1cc2cc(-c3c(C)nc(Nc4ccccc4)nc3N[C@@H]3C[C@H](CO)[C@@H](O)[C@H]3O)oc2c(C)n1.Cl |  | 8980 | 18.5 |  |  |
| Nc1nc(Cl)c(-c2cc3cccnc3o2)c(N[C@@H]2C[C@H](CO)[C@@H](O)[C@H]2O)n1 | 400 |  |  |  | 19 |
| Cc1nccc2cc(-c3c(Cl)nc(N)nc3N[C@@H]3C[C@H](CO)[C@@H](O)[C@H]3O)oc12 | 120 |  |  | > 25 | > 25 |
| COc1cc(CNc2nc(C)c(-c3cc4cc(OC)nc(C)c4o3)c(N[C@@H]3C[C@H](CO)[C@@H](O)[C@H]3O)n2)cc(OC)c1 | 10 |  |  | > 25 | 25 |
| CNc1nc(C)c(-c2cc3cc(OC)nc(C)c3o2)c(N[C@@H]2C[C@H](CO)[C@@H](O)[C@H]2O)n1.Cl |  | 310 | 2.7 |  |  |
| Nc1nc(Cl)c(-c2cc3ncccc3o2)c(N[C@@H]2C[C@H](CO)[C@@H](O)[C@H]2O)n1 | > 25000 |  |  |  | 21 |
| Nc1nc(Cl)c(-c2cc3ccncc3o2)c(N[C@@H]2C[C@H](CO)[C@@H](O)[C@H]2O)n1 | 70 |  |  | 25 | 25 |
| CCOc1cc2cc(-c3c(C)nc(NC)nc3N[C@@H]3C[C@H](CO)[C@@H](O)[C@H]3O)oc2c(C)n1 | 50 |  |  | > 25 |  |
| CCc1cc2cc(-c3c(Cl)nc(N)nc3N[C@@H]3C[C@H](CO)[C@@H](O)[C@H]3O)oc2c(CC)n1 | 20 |  |  | 25 | 16 |
| Cc1cc2cc(-c3c(Cl)nc(N)nc3N[C@@H]3C[C@H](CO)[C@@H](O)[C@H]3O)oc2cn1 | 30 |  |  | 9 | 25 |
| COc1cc2cc(-c3c(C)nc(NCC(C)(C)C)nc3N[C@@H]3C[C@H](CO)[C@@H](O)[C@H]3O)oc2c(C)n1 | 40 |  |  | 17 | 21 |
| CCOc1cc2cc(-c3c(C)nc(NCC(F)(F)F)nc3N[C@@H]3C[C@H](CO)[C@@H](O)[C@H]3O)oc2c(C)n1 | 20 |  |  | > 25 | > 25 |
| CCc1nccc2cc(-c3c(Cl)nc(N)nc3N[C@@H]3C[C@H](CO)[C@@H](O)[C@H]3O)oc12 | 20 |  |  | 19 | 24 |
| CCc1cc2cc(-c3c(C)nc(NCc4cc(OC)cc(OC)c4)nc3N[C@@H]3C[C@H](CO)[C@@H](O)[C@H]3O)oc2cn1.Cl |  | 20 | 0.1 |  |  |
| CCc1cc2cc(-c3c(C)nc(NCC(C)(C)C)nc3N[C@@H]3C[C@H](CO)[C@@H](O)[C@H]3O)oc2cn1.Cl |  | 315 | 4 |  |  |
| CCc1cc2cc(-c3c(Cl)nc(N)nc3N[C@@H]3C[C@H](CO)[C@@H](O)[C@H]3O)oc2c(C)n1.Cl |  |  | 0.01 |  |  |
| CCc1cc2cc(-c3c(Cl)nc(N)nc3N[C@@H]3C[C@H](CO)[C@@H](O)[C@H]3O)oc2c(C)n1 | 10 |  |  | 13 | 16 |
| Cc1cncc2oc(-c3c(Cl)nc(N)nc3N[C@@H]3C[C@H](CO)[C@@H](O)[C@H]3O)cc12 | 1400 |  |  | 25 | > 25 |
| COc1cc2cc(-c3c(C)nc(NCC(C)(C)C)nc3N[C@@H]3C[C@H](CO)[C@@H](O)[C@H]3O)oc2c(C)n1.Cl |  | 1180 | 4.4 |  |  |
| CCc1cc2cc(-c3c(C)nc(NC)nc3N[C@@H]3C[C@H](CO)[C@@H](O)[C@H]3O)oc2cn1.Cl |  | 936 | 0.9 |  |  |
| CNc1nc(Cl)c(-c2cc3cc(OC)nc(C)c3o2)c(N[C@@H]2C[C@H](CO)[C@@H](O)[C@H]2O)n1.Cl |  | 274 | 6.5 |  |  |
| CCOc1cc2cc(-c3c(C)nc(NCc4cc(OC)cc(OC)c4)nc3N[C@@H]3C[C@H](CO)[C@@H](O)[C@H]3O)oc2c(C)n1 | 2 |  |  | > 25 | > 25 |
| CCc1cc2cc(-c3c(C)nc(NCC(C)C)nc3N[C@@H]3C[C@H](CO)[C@@H](O)[C@H]3O)oc2cn1.Cl |  | 251 | 4.5 |  |  |
| CCc1nc(C)cc2cc(-c3c(Cl)nc(N)nc3N[C@@H]3C[C@H](CO)[C@@H](O)[C@H]3O)oc12 | 30 |  |  | 9 | 20 |
| CCc1cc2cc(-c3c(C)nc(NCC(C)(C)C)nc3N[C@@H]3C[C@H](CO)[C@@H](O)[C@H]3O)oc2cn1 | 30 |  |  | 10 | 11 |
| COc1cc(CNc2nc(C)c(-c3cc4cc(OC)nc(C)c4o3)c(N[C@@H]3C[C@H](CO)[C@@H](O)[C@H]3O)n2)cc(OC)c1.Cl |  | 178 | 0.5 |  |  |

The next lines start with results.

| EC50 [2] [nM] | liver concentration [4] [ng/g] | AUC(0-t) at 6 h [5] [µM·h] | Structure (SMILES) | CC50 at 72 h [1] [µM] | CC50 at 72 h [3] [µM] |
| --- | --- | --- | --- | --- | --- |
|  | 1000 | 0.9 | CCc1cc2cc(-c3c(C)nc(NCCCC(F)(F)F)nc3N[C@@H]3C[C@H](CO)[C@@H](O)[C@H]3O)oc2cn1.Cl |  |  |
|  | 238 | 0.35 | CCOc1cc2cc(-c3c(C)nc(NCc4cc(OC)cc(OC)c4)nc3N[C@@H]3C[C@H](CO)[C@@H](O)[C@H]3O)oc2c(C)n1.Cl |  |  |
| 9 |  |  | CCOc1cc2cc(-c3c(C)nc(NCCOC)nc3N[C@@H]3C[C@H](CO)[C@@H](O)[C@H]3O)oc2c(C)n1 | > 25 | > 25 |
| 10 |  |  | COc1cc2cc(-c3c(Cl)nc(N)nc3N[C@@H]3C[C@H](CO)[C@@H](O)[C@H]3O)oc2c(C)n1 |  | 25 |
| 30 |  |  | CCCCCNc1nc(C)c(-c2cc3cc(CC)ncc3o2)c(N[C@@H]2C[C@H](CO)[C@@H](O)[C@H]2O)n1 | 3 | 3 |
| 20 |  |  | CCOc1cc2cc(-c3c(C)nc(NCC4CC4)nc3N[C@@H]3C[C@H](CO)[C@@H](O)[C@H]3O)oc2c(C)n1 | 25 | 25 |
| 30 |  |  | CCc1cc2cc(-c3c(C)nc(NC)nc3N[C@@H]3C[C@H](CO)[C@@H](O)[C@H]3O)oc2cn1 | > 25 | > 25 |
| 3 |  |  | CCc1cc2cc(-c3c(C)nc(NCc4cc(OC)cc(OC)c4)nc3N[C@@H]3C[C@H](CO)[C@@H](O)[C@H]3O)oc2cn1 | > 25 | 20 |
|  |  | 0.17 | CCc1cc2cc(-c3c(Cl)nc(N)nc3N[C@@H]3C[C@H](CO)[C@@H](O)[C@H]3O)oc2c(CC)n1.Cl |  |  |
|  | 492 | 1.2 | CCOCCNc1nc(C)c(-c2cc3cc(CC)ncc3o2)c(N[C@@H]2C[C@H](CO)[C@@H](O)[C@H]2O)n1.Cl |  |  |
| 10 |  |  | CCc1cc2cc(-c3c(Cl)nc(N)nc3N[C@@H]3C[C@H](CO)[C@@H](O)[C@H]3O)oc2cn1 | 12 | 22 |
| 10 |  | 0.01 | Cc1cc2cc(-c3c(Cl)nc(N)nc3N[C@@H]3C[C@H](CO)[C@@H](O)[C@H]3O)oc2c(C)n1.Cl | 15 | 22 |
| 4 |  |  | CCOCCNc1nc(C)c(-c2cc3cc(CC)ncc3o2)c(N[C@@H]2C[C@H](CO)[C@@H](O)[C@H]2O)n1 | 4 | 16 |
| 20 |  |  | CCc1cc2cc(-c3c(C)nc(NCC(F)(F)F)nc3N[C@@H]3C[C@H](CO)[C@@H](O)[C@H]3O)oc2cn1 | 13 | 15 |
| 60 |  |  | CNc1nc(C)c(-c2cc3cc(OC)nc(C)c3o2)c(N[C@@H]2C[C@H](CO)[C@@H](O)[C@H]2O)n1 | > 25 | 25 |
|  | 31 | 0.48 | CCCCCNc1nc(C)c(-c2cc3cc(CC)ncc3o2)c(N[C@@H]2C[C@H](CO)[C@@H](O)[C@H]2O)n1.Cl |  |  |
|  |  | 0.05 | CCc1nccc2cc(-c3c(Cl)nc(N)nc3N[C@@H]3C[C@H](CO)[C@@H](O)[C@H]3O)oc12.Cl |  |  |
| 150 |  |  | CCOc1cc2cc(-c3c(C)nc(Nc4ccccc4)nc3N[C@@H]3C[C@H](CO)[C@@H](O)[C@H]3O)oc2c(C)n1 | 24 | 18 |
| 1700 |  |  | Nc1nc(Cl)c(-c2cc3cnccc3o2)c(N[C@@H]2C[C@H](CO)[C@@H](O)[C@H]2O)n1 |  | 25 |
|  | 2330 | 6.8 | CCOc1cc2cc(-c3c(C)nc(NCC(C)(C)C)nc3N[C@@H]3C[C@H](CO)[C@@H](O)[C@H]3O)oc2c(C)n1.Cl |  |  |
|  | 3020 | 8.9 | CCOc1cc2cc(-c3c(C)nc(NCC(F)(F)F)nc3N[C@@H]3C[C@H](CO)[C@@H](O)[C@H]3O)oc2c(C)n1.Cl |  |  |
|  | 238 | 1.4 | CCOc1cc2cc(-c3c(C)nc(NC)nc3N[C@@H]3C[C@H](CO)[C@@H](O)[C@H]3O)oc2c(C)n1.Cl |  |  |
|  |  | 0.1 | COc1cc2cc(-c3c(Cl)nc(N)nc3N[C@@H]3C[C@H](CO)[C@@H](O)[C@H]3O)oc2c(C)n1.Cl |  |  |
|  |  | 0.07 | CCc1cc2cc(-c3c(Cl)nc(N)nc3N[C@@H]3C[C@H](CO)[C@@H](O)[C@H]3O)oc2cn1.Cl |  |  |
|  | 285 | 1.1 | CCOc1cc2cc(-c3c(C)nc(NCCOC)nc3N[C@@H]3C[C@H](CO)[C@@H](O)[C@H]3O)oc2c(C)n1.Cl |  |  |
| 50 |  |  | CCOc1cc2cc(-c3c(C)nc(NCC(C)(C)C)nc3N[C@@H]3C[C@H](CO)[C@@H](O)[C@H]3O)oc2c(C)n1 | 12 | 23 |
